Data taken from patent US10813944B2, “Cyclodextrins as procoagulants” (STICHTING SANQUIN BLOEDVOORZIENING, priority 2016, dated 2020).

What was measured:
Format in all cases: biochemical, human
[1] = system: thrombin generation in pooled normal plasma; assay: Calibrated Automated Thrombogram thrombin generation assay in pooled normal plasma; settings: for procoagulant effect in normal plasma: no anticoagulant, cyclodextrin 100 μM unless otherwise indicated, 1 pM TF; for lag time / peak thrombin: normal plasma, versus absence of cyclodextrin; for procoagulant activity (overview): pooled normal plasma with and without the addition of anticoagulants
Procedure: (§1) FIGS. 3-8, 12, 14-19 and 22-27: Pooled normal plasma was spiked with cyclodextrins (100 μM, unless otherwise indicated) and anticoagulants. The concentrations of the anticoagulants were 100 ng/ml for dabigatran (A), 100 ng/ml for rivaroxaban (B), 60 ng/ml for apixaban (C), 60 ng/ml for edoxaban (D). The plasmas were subjected to thrombin generation analysis as described in the Materials and Methods section with 1 pM tissue factor (TF) as initiator of coagulation.
(§2) The Calibrated Automated Thrombogram® assays the generation of thrombin in clotting plasma using a microtiter plate reading fluorometer (Fluoroskan Ascent, ThermoLab systems, Helsinki, Finland) and Thrombinoscope® software (Thrombinoscope BV, Maastricht, The Netherlands). The assay was carried out as described by Hemker et al. (Pathofysiol. IIaemost. Thromb. 2003, 33, 4-15), and the Thrombinoscope® manual. Coagulation was triggered by recalcification in the presence of 1 or 5 pM recombinant human tissue factor (Innovin®, Siemens, Marburg, Germany), 4 μM phospholipids, and 417 μM fluorogenic substrate Z-Gly-Gly-Arg-AMC (Bachem, Bubendorf, Switzerland). Fluorescence was monitored using the Fluoroskan Ascent fluorometer (ThermoLabsystems, Helsinki, Finland), and the lag time, peak thrombin, velocity index and area under the curve (ETP) were calculated using the Thrombinoscope® software (Thrombinoscope BV).
Thrombin generation analyses were performed in pooled normal plasma with and without the addition of anticoagulants.

[2] = system: plasma deficient in coagulation factor VIII; assay: Thrombin generation assay in plasma deficient in coagulation factor VIII
Procedure: FIG. 20: Plasma deficient in coagulation factor VIII was spiked with cyclodextrin OKL-1111 (A), OKL-1180 (B), and OKL-1187 (C) at the indicated concentrations.
as §2

[3] = system: plasma deficient in coagulation factor IX; assay: Thrombin generation assay in plasma deficient in coagulation factor IX
Procedure: as §2

[4] = system: thrombin generation in pooled normal plasma spiked with anticoagulants; assay: Thrombin generation assay in pooled normal plasma spiked with anticoagulants; settings: for effect on the anticoagulant effect of apixaban: apixaban 60 ng/ml; for effect on the anticoagulant effect of apixaban / effect on the anticoagulant effect of dabigatran / effect on the anticoagulant effect of edoxaban / effect on the anticoagulant effect of rivaroxaban: cyclodextrin 100 μM, 1 pM TF; for effect on the anticoagulant effect of dabigatran: dabigatran 100 ng/ml; for effect on the anticoagulant effect of edoxaban: edoxaban 60 ng/ml; for effect on the anticoagulant effect of rivaroxaban: rivaroxaban 100 ng/ml
Procedure: as §1
FIG. 9: Pooled normal plasma was spiked with OKL-1111 (100 μM, unless otherwise indicated (A)) and anticoagulants (B-E). The concentrations of the anticoagulants were 100 ng/ml for dabigatran (B), 100 ng/ml for rivaroxaban (C), 60 ng/ml for apixaban (D), 60 ng/ml for edoxaban (E). The plasmas were subjected to thrombin generation analysis as described in the Materials and Methods section with 1 pM tissue factor (TF) as initiator of coagulation.
FIG. 10: Pooled normal plasma was spiked with OKL-1111 (100 μM) and anticoagulants (A-F). The concentrations of the anticoagulants were 2 μg/ml for fondaparinux (A), 0.4 U/ml for nadroparin (B), 0.1 U/ml for tinzaparin (C), 0.03 U/ml for unfractionated heparin (UFH) (D), 0.5 U/ml for hirudin (E) and 10 μg/ml for bivalirudin (F). The plasmas were subjected to thrombin generation analysis as described in the Materials and Methods section with 1 pM tissue factor (TF) as initiator of coagulation.
as §2

| SMILES | procoagulant effect in normal plasma [1] | procoagulant effect in factor VIII deficient plasma [2] | procoagulant activity in factor IX deficient plasma [3] | lag time [1] | peak thrombin [1] | effect on the anticoagulant effect of apixaban [4] | effect on the anticoagulant effect of dabigatran [4] | effect on the anticoagulant effect of edoxaban [4] | effect on the anticoagulant effect of rivaroxaban [4] | procoagulant activity (overview) [1] | procoagulant effect in plasma containing anticoagulants (not specified / NOACs) [4] |
| --- | --- | --- | --- | --- | --- | --- | --- | --- | --- | --- | --- |
| O=C(O)CCCCCCSCC1OC2OC3C(CSCCCCCCC(=O)O)OC(OC4C(CSCCCCCCC(=O)O)OC(OC5C(CSCCCCCCC(=O)O)OC(OC6C(CSCCCCCCC(=O)O)OC(OC7C(CSCCCCCCC(=O)O)OC(OC8C(CSCCCCCCC(=O)O)OC(OC9C(CSCCCCCCC(=O)O)OC(OC1C(O)C2O)C(O)C9O)C(O)C8O)C(O)C7O)C(O)C6O)C(O)C5O)C(O)C4O)C(O)C3O (stereo not drawn) [OKL-1172] | significant procoagulant activity | procoagulant effects | procoagulant activity |  |  |  |  |  |  |  |  |
| O=C(O)CCCCSCC1OC2OC3C(CSCCCCC(=O)O)OC(OC4C(CSCCCCC(=O)O)OC(OC5C(CSCCCCC(=O)O)OC(OC6C(CSCCCCC(=O)O)OC(OC7C(CSCCCCC(=O)O)OC(OC8C(CSCCCCC(=O)O)OC(OC9C(CSCCCCC(=O)O)OC(OC1C(O)C2O)C(O)C9O)C(O)C8O)C(O)C7O)C(O)C6O)C(O)C5O)C(O)C4O)C(O)C3O (stereo not drawn) [OKL-1171] | significant procoagulant activity | procoagulant effects |  |  |  |  |  |  |  |  |  |
| OCCCSCC1OC2OC3C(CSCCCO)OC(OC4C(CSCCCO)OC(OC5C(CSCCCO)OC(OC6C(CSCCCO)OC(OC7C(CSCCCO)OC(OC8C(CSCCCO)OC(OC9C(CSCCCO)OC(OC1C(O)C2O)C(O)C9O)C(O)C8O)C(O)C7O)C(O)C6O)C(O)C5O)C(O)C4O)C(O)C3O (stereo not drawn) [OKL-1146] | very strong procoagulant effects |  |  | considerably shorter | largely increased | restoration of thrombin generation to levels far above that of non-anticoagulated plasma | restoration of thrombin generation to levels far above that of non-anticoagulated plasma | restoration of thrombin generation to levels far above that of non-anticoagulated plasma | restoration of thrombin generation to levels far above that of non-anticoagulated plasma |  |  |
| O=C(O)CCSCC1OC2OC3C(CSCCC(=O)O)OC(OC4C(CSCCC(=O)O)OC(OC5C(CSCCC(=O)O)OC(OC6C(CSCCC(=O)O)OC(OC7C(CSCCC(=O)O)OC(OC8C(CSCCC(=O)O)OC(OC1C(O)C2O)C(O)C8O)C(O)C7O)C(O)C6O)C(O)C5O)C(O)C4O)C(O)C3O (stereo not drawn) [OKL-1101, reference compound] | did not show procoagulant activity |  |  |  |  |  |  |  |  | No | did not show procoagulant activity |
| OCCCSCC1OC2OC3C(CSCCCO)OC(OC4C(CSCCCO)OC(OC5C(CSCCCO)OC(OC6C(CSCCCO)OC(OC7C(CSCCCO)OC(OC8C(CSCCCO)OC(OC1C(O)C2O)C(O)C8O)C(O)C7O)C(O)C6O)C(O)C5O)C(O)C4O)C(O)C3O (stereo not drawn) [OKL-1181] | significant procoagulant activity | procoagulant effects | procoagulant activity |  |  |  |  |  |  |  |  |
| O=C(O)CCCSCC1OC2OC3C(CSCCCC(=O)O)OC(OC4C(CSCCCC(=O)O)OC(OC5C(CSCCCC(=O)O)OC(OC6C(CSCCCC(=O)O)OC(OC7C(CSCCCC(=O)O)OC(OC8C(CSCCCC(=O)O)OC(OC1C(O)C2O)C(O)C8O)C(O)C7O)C(O)C6O)C(O)C5O)C(O)C4O)C(O)C3O (stereo not drawn) [OKL-1105] | significant procoagulant effect |  |  |  |  | procoagulant effects were observed | procoagulant effects were observed | procoagulant effects were observed | procoagulant effects were observed |  |  |
| O=C(O)CCSCC1OC2OC3C(CSCCC(=O)O)OC(OC4C(CSCCC(=O)O)OC(OC5C(CSCCC(=O)O)OC(OC6C(CSCCC(=O)O)OC(OC7C(CSCCC(=O)O)OC(OC8C(CSCCC(=O)O)OC(OC9C(CSCCC(=O)O)OC(OC1C(O)C2O)C(O)C9O)C(O)C8O)C(O)C7O)C(O)C6O)C(O)C5O)C(O)C4O)C(O)C3O (stereo not drawn) [OKL-1170, reference compound] | did not show procoagulant activity |  |  |  |  |  |  |  |  | No | did not show procoagulant activity |
| O=C(O)CCCSCC1OC2OC3C(CSCCCC(=O)O)OC(OC4C(CSCCCC(=O)O)OC(OC5C(CSCCCC(=O)O)OC(OC6C(CSCCCC(=O)O)OC(OC7C(CSCCCC(=O)O)OC(OC8C(CSCCCC(=O)O)OC(OC9C(CSCCCC(=O)O)OC(OC1C(O)C2O)C(O)C9O)C(O)C8O)C(O)C7O)C(O)C6O)C(O)C5O)C(O)C4O)C(O)C3O (stereo not drawn) [OKL-1107] | strong procoagulant effects |  |  | considerably shorter | largely increased | completely restored or even higher than in the non-anticoagulated plasma | completely restored or even higher than in the non-anticoagulated plasma | completely restored or even higher than in the non-anticoagulated plasma | completely restored or even higher than in the non-anticoagulated plasma |  |  |
| O=C(O)CCCCCCSCC1OC2OC3C(CO)OC(OC4C(CO)OC(OC5C(CO)OC(OC6C(CO)OC(OC7C(CO)OC(OC8C(CO)OC(OC9C(CO)OC(OC1C(O)C2O)C(O)C9O)C(O)C8O)C(O)C7O)C(O)C6O)C(O)C5O)C(O)C4O)C(O)C3O (stereo not drawn) [OKL-1190] | procoagulant effect |  |  |  |  | antagonized | antagonized | antagonized | antagonized |  |  |
| O=C(O)CCCCCSCC1OC2OC3C(CO)OC(OC4C(CO)OC(OC5C(CO)OC(OC6C(CO)OC(OC7C(CO)OC(OC8C(CO)OC(OC9C(CO)OC(OC1C(O)C2O)C(O)C9O)C(O)C8O)C(O)C7O)C(O)C6O)C(O)C5O)C(O)C4O)C(O)C3O (stereo not drawn) [OKL-1110] | very potent procoagulant effect |  |  |  |  | fully counteracted | strongly antagonized | fully counteracted | fully counteracted |  |  |
| O=C(O)CCCCCSCC1OC2OC3C(CO)OC(OC4C(CO)OC(OC5C(CO)OC(OC6C(CO)OC(OC7C(CO)OC(OC1C(O)C2O)C(O)C7O)C(O)C6O)C(O)C5O)C(O)C4O)C(O)C3O (stereo not drawn) [OKL-1186, Alpha-mono-S—C6-acid] | substantial procoagulant effect |  |  |  |  | antagonized | antagonized | antagonized | antagonized |  |  |
| O=C(O)CCSCC1OC2OC3C(CO)OC(OC4C(CO)OC(OC5C(CO)OC(OC6C(CO)OC(OC7C(CO)OC(OC8C(CO)OC(OC1C(O)C2O)C(O)C8O)C(O)C7O)C(O)C6O)C(O)C5O)C(O)C4O)C(O)C3O (stereo not drawn) [OKL-1100, reference compound] | did not show procoagulant activity |  |  |  |  |  |  |  |  | No | did not show procoagulant activity |
